# How the values were obtained:
# UM cell line MEL270 = experiment: Screen of PAC-1 in combination with kinase inhibitors, percent cell death; type: cell-based; details: MEL270, 72-hour incubation, single agents and combination at the same concentrations (FIG. 2)
# Excerpt: FIG. 2. […] These three types of fusion proteins are key driver alterations in multiple cancer types.
# [1] = cited from earlier work
# [2] = tested on: ROS1-rearranged lung cancers; details: cited from earlier work
# 92.1 = experiment: PAC-1 single agent IC50 in uveal melanoma cell line, 72-hour incubation; type: cell-based; details: 92.1, GNAQ Mutant Q209L, error s.e.m.
# Excerpt: (§1) UM cell lines express procaspase-3 (FIG. 1), and PAC-1 has activity as a single agent in a panel of UM cell lines (Table D). [table]
# MEL202 = experiment: as above; type: cell-based; details: MEL202, GNAQ Mutant Q209L, R210K, error s.e.m.
# Excerpt: as §1
# MEL270 = experiment: as above; type: cell-based; details: MEL270, GNAQ Mutant Q209P, error s.e.m.
# Excerpt: as §1
# MEL285 = experiment: as above; type: cell-based; details: MEL285, GNAQ/11 WT, error s.e.m.
# Excerpt: as §1
# MEL290 = experiment: as above; type: cell-based; details: MEL290, GNAQ/11 WT, error s.e.m.
# Excerpt: as §1
# OMM1 = experiment: as above; type: cell-based; details: OMM-1, OMM1, GNA11 Mutant Q209L, error s.e.m.
# Excerpt: as §1
# OMM2.5 = experiment: as above; type: cell-based; details: OMM2.5, GNAQ Mutant Q209P, error s.e.m.
# Excerpt: as §1
# [3] = PAC-1 clinical study in human patients, safety; type: in vivo
# Method: PAC-1 has been dosed in 34 human patients through 7 dose levels of PAC-1 (range: 75-750 mg). Two patients progressed during the first cycle of PAC-1 therapy. Thirty-two patients received PAC-1 for at least 2 dosing cycles (a cycle is 21 days of daily dosing followed by 7 days of no drug). As a result of stable disease responses, six patients received PAC-1 for 4 cycles, three patients received PAC-1 for 6 cycles and two patients received PAC-1 for 10 cycles.
# [4] = GLP dog PK/preclinical PAC-1 toxicity studies; type: in vivo
Structure (SMILES),Percent cell death (UM cell line MEL270) [%],treatment-related adverse events of any grade: myalgias ([1]; n=27/119) [%],treatment-related adverse events of any grade: nausea ([1]; n=33/119) [%],treatment-related adverse events of any grade: paresthesias ([1]; n=34/119) [%],treatment-related adverse events of any grade: dysgeusia ([1]; n=50/119) [%],treatment-related adverse events of any grade: fatigue/asthenia ([1]; n=55/119) [%],Disease control and progression-free survival [2],IC50 (92.1) [µM],IC50 (MEL202) [µM],IC50 (MEL270) [µM],IC50 (MEL285) [µM],IC50 (MEL290) [µM],IC50 (OMM1) [µM],IC50 (OMM2.5) [µM],"serious adverse events (SAEs) associated with PAC-1 administration ([3]; 34 human patients, 7 dose levels, 75-750 mg)",neurotoxicity associated with PAC-1 dosing ([3]; neurological and neurocognitive assessments through dose level 7 (750 mg)),Brain tissue findings [4]
CN1CCN(c2ccc(C(=O)Nc3n[nH]c4ccc(Cc5cc(F)cc(F)c5)cc34)c(NC3CCOCC3)c2)CC1 [entrectinib],~16,23,28,29,42,46,durable disease control and prolonged progression-free survival,–,–,–,–,–,–,–,–,–,–
C=CCc1cccc(/C=N/NC(=O)CN2CCN(Cc3ccccc3)CC2)c1O [PAC-1],~16,–,–,–,–,–,–,3.6 ± 0.7,10.3 ± 0.2,9.8 ± 0.6,7.4 ± 2.6,11.7 ± 1.2,4 ± 0.8,9.5 ± 0.5,No serious adverse events,no conclusive signs of neurotoxicity,brain tissue changes observed

# — US12090153B2, “Combination therapy for the treatment of uveal melanoma” (The Board of Trustees of the University of Illinois, priority 2018, dated 2024)
